Patent US20250275959A1, “COMPOUNDS AND METHODS OF THEIR USE” (LEXICON PHARMACEUTICALS, INC., priority 2024, published 2025)
Entries after “also recorded” stand apart in the source; their conditions may differ.

Columns and labels:
[1] = Murine diet-induced obesity (DIO) model, Compound A study; assay type: in vivo, C57BL/6J mice; details: DIO mice
Procedure: The effects of four representative compounds of the invention were tested in a mouse model of diet-induced obesity (DIO): • Compound A is (R)—N-(tert-butylsulfonyl)-4-(1-(5-(pyridin-3-yloxy)pyridin-2-yl)ethoxy)-3-(trifluoromethyl)benzamide; • Compound B is (R)-4-(1-(5-(cyclopropylmethoxy)pyridin-2-yl)propoxy)-N-((4-(2-(dimethylamino)ethoxy)phenyl)sulfonyl)-2,3-difluorobenzamide; • Compound C is (R)—N-((4-(2-(dimethylamino)ethoxy)piperidin-1l-yl)sulfonyl)-2,3-difluoro-4-(1-(5-(pyridin-2-yloxy)pyridin-2-yl)propoxy)benzamide; and • Compound D is (R)-2,3-difluoro-N-((4-methylpiperazin-1-yl)sulfonyl)-4-(1-(5-(pyridin-2-yloxy)pyridin-2-yl)propoxy)benzamide.
The mice used in these experiments were C57BL/6J mice fed a high-fat diet (D12492 from Research Diets) ad libitum during the study period. The vehicle and test article formulations were 10% w/v Solutol in water.
After a seven-day acclimation period, the DIO model was induced by putting the mice on a high fat diet for ten weeks. After the ten weeks, the DIO mice were equally divided into groups based on body weight, ten mice in each group: the control group (Vehicle) and Compound A at 30 mg/kg.
The animals were pre-dosed for two days prior to formal dosing (once-per-day treatment for every group). From Day 1 to Day 13, the animals in the dosing group were administered orally by gavage at 5:00 p.m. every day as well as weight and food intake were recorded daily. All animals were fasted overnight after dosing on Day 1, Day 4, Day 12 and Day 13, then the blood (retro-orbital bleed) of mice from each group was collected at 7:00 a.m. to separate out the serum on Day 2, Day 5 and Day 13 for measuring total cholesterol levels (TC), triglyceride (TG), aminotransferase alanine (ALT), aspartate aminotransferase (AST) and total bilirubin (TBil) levels. All animals were performed OGTT test (0 min, 30 min, 60 min and 120 min) and measured insulin levels (0 min and 30 min) on Day 14.
• 1. Body weight and Food Consumption: Pre-dose every day starting from Day −1 onwards. • 2. Day −1 and Day 0: Handle mice and gavage with vehicle. • 3. Day 1: Dose˜5:00 PM. Fast overnight. • 4. Day 2: Determine total cholesterol levels and triglyceride, ALT, AST, Total Bilirubin levels 7:00 AM. Resume feeding. • 5. Day 2-3: Dose˜5:00 PM. • 6. Day 4: Dose˜5:00 PM. Fast overnight. • 7. Day 5: Determine total cholesterol levels and triglyceride, ALT, AST, Total Bilirubin levels˜7:00 AM. Resume feeding. • 8. Day 5˜11: Dose˜5:00 PM. • 9. Day 12: Dose˜5:00 PM. Fast overnight. • 10. Day 13: Determine total cholesterol levels and triglyceride, ALT, AST, Total Bilirubin levels 7:00 AM. Resume feeding. • 11. Day 13: Dose˜5:00 PM. Fast overnight. • 12. Day 14: (No drug administration) Oral glucose tolerance test with glucose levels measured at Pre-dose, 30 min, 60 min and 120 min. And insulin levels at Time 0 min, 30 min after the glucose challenge.
Data was provided as mean±SD. Statistical significance was considered when the P value is less than 0.05. Results were analyzed by SPSS software. […]. T-test was used to calculate P value. […]

hACSL5 [2] = target: T1, hACSL5 (Homo sapiens (Human), UniProt Q9ULC5); assay: Human ACSL5 coupled enzyme Amplex Red assay; assay type: biochemical; details: read-out: hACSL5 IC50
How it was run: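 C-terminally His-tagged ACSL5 (33-683) from sf9 cells, 20 nM, was preincubated with compound in MOPS-NaOH pH 7.6 with MgCl2, peroxidase and acyl-CoA oxidase. Reactions were started with 25 μM oleate, 30 μM CoA, 1 mM ATP and 50 μM Amplex Red; fluorescence (535/590 nm) after 10 minutes at 25° C. was fitted to the Hill equation for IC50 and maximal inhibition.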
Target sequence in this assay (Q9ULC5 33-683): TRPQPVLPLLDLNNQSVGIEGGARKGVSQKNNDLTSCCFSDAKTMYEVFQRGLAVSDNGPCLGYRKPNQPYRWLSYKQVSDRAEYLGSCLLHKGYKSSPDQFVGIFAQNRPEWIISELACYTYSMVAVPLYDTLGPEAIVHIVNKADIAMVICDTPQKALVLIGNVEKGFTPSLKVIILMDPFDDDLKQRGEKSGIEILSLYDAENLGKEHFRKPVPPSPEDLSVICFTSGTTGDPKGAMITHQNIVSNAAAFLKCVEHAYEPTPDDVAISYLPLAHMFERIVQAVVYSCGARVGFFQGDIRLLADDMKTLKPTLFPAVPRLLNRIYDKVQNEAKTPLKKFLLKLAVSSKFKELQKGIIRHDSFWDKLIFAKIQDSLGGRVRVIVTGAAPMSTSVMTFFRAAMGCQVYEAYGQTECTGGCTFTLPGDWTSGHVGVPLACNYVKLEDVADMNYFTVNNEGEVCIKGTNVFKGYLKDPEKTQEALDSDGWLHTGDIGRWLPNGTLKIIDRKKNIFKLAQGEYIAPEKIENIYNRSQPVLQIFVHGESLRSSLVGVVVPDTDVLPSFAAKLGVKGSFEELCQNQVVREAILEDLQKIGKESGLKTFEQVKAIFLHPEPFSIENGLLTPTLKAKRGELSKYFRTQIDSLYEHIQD

hACSL5 [3] = target: T1, hACSL5; assay: Cell-based assay (CBA) with B12FA in hACSL5-transfected Expi293F / FlpIn TRex293 cells; details: hACSL5-expressing cells
How it was run: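 hACSL5-expressing Expi293F or tetracycline-induced FlpIn TRex293 cells, serum- and glucose-starved 1 h, then treated 3 h with serially diluted compound plus 20 µM B12FA. After fixation, 630/520 nm emission ratio (ex 485 nm) gave % inhibition versus no-inhibitor and 10 µM compound/non-induced controls; IC50 by Hill fit.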
Target sequence in this assay (Q9ULC5 whole entry): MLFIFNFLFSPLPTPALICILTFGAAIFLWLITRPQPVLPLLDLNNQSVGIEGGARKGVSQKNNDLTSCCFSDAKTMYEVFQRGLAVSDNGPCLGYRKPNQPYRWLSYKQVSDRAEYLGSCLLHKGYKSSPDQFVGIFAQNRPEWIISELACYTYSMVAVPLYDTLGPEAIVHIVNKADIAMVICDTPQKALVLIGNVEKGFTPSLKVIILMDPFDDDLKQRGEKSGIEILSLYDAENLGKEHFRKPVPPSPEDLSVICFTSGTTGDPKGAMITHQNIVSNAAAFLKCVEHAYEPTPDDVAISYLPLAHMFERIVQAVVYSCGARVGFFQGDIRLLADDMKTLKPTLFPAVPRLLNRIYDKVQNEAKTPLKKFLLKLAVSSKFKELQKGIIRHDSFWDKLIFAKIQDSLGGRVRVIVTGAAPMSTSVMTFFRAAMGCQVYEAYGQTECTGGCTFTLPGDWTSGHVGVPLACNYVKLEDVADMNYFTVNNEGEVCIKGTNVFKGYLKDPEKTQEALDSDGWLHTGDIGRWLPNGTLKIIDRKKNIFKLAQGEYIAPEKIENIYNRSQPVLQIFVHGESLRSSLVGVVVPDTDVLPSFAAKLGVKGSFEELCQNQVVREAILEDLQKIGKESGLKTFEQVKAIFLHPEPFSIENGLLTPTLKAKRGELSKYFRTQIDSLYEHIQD

| Structure (SMILES) | Body Weight (g)/Day ([1]; 30 mg/kg oral daily, Day 1) | Body Weight (g)/Day ([1]; 30 mg/kg oral daily, Day 2) | Body Weight (g)/Day ([1]; 30 mg/kg oral daily, Day 3) | Body Weight (g)/Day ([1]; 30 mg/kg oral daily, Day 4) | Body Weight (g)/Day ([1]; 30 mg/kg oral daily, Day 5) | Body Weight (g)/Day ([1]; 30 mg/kg oral daily, Day 6) | Body Weight (g)/Day ([1]; 30 mg/kg oral daily, Day 7) | Body Weight (g)/Day ([1]; 30 mg/kg oral daily, Day 8) | Body Weight (g)/Day ([1]; 30 mg/kg oral daily, Day 9) | Body Weight (g)/Day ([1]; 30 mg/kg oral daily, Day 10) | Body Weight (g)/Day ([1]; 30 mg/kg oral daily, Day 11) | Body Weight (g)/Day ([1]; 30 mg/kg oral daily, Day 12) | mean body weight versus control group ([1]; 30 mg/kg oral daily, Day −1 to Day 12) | Body Weight (g)/Day ([1]; 30 mg/kg, Day 0 (pre-dose)) | Body Weight (g)/Day ([1]; 30 mg/kg, Day −1 (pre-dose)) | IC50 (hACSL5 [2]) | IC50 (hACSL5 [3]) |
| --- | --- | --- | --- | --- | --- | --- | --- | --- | --- | --- | --- | --- | --- | --- | --- | --- | --- |
| C[C@@H](Oc1ccc(C(=O)NS(=O)(=O)C(C)(C)C)cc1C(F)(F)F)c1ccc(Oc2cccnc2)cn1 [Compound A, (R)—N-(tert-butylsulfonyl)-4-(1-(5-(pyridin-3-yloxy)pyridin-2-yl)ethoxy)-3-(trifluoromethyl)benzamide] | 37.9 ± 1.4 g | 36.6 ± 1.4 g | 35.8 ± 1.5 g | 35.3 ± 1.4 g | 34.3 ± 1.3 g | 34.2 ± 1.2 g | 34.0 ± 1.3 g | 33.9 ± 1.4 g | 33.5 ± 1.4 g | 33.4 ± 1.3 g | 32.9 ± 1.4 g | 32.8 ± 1.3 g | significantly lower than that of the control group from Day 8 onwards; also recorded: statistically significant effect on the mice's body weights versus control | 38.3 ± 1.4 g | 38.5 ± 1.6 g | – | – |
| CC[C@@H](Oc1ccc(C(=O)NS(=O)(=O)N2CCN(C3CC3)CC2)c(F)c1F)c1ccc(OC2CC(OC)C2)cn1 (stereo partly drawn) [N-((4-cyclopropylpiperazin-1-yl)sulfonyl)-2,3-difluoro-4-((R)-1-(5-((1R,3R)-3-methoxycyclobutoxy)pyridin-2-yl)propoxy)benzamide] | – | – | – | – | – | – | – | – | – | – | – | – | – | – | – | < 100 nM | 100 to 500 nM |
| CC[C@@H](Oc1ccc(C(=O)NS(=O)(=O)N2CCN(C)[C@@H](C)C2)c(F)c1F)c1ccc(Oc2ccccn2)cn1 [N-(((S)-3,4-dimethylpiperazin-1-yl)sulfonyl)-2,3-difluoro-4-((R)-1-(5-(pyridin-2-yloxy)pyridin-2-yl)propoxy)benzamide] | – | – | – | – | – | – | – | – | – | – | – | – | – | – | – | < 100 nM | < 100 nM |
